Experimental data published in PubChem BioAssay AID1963444 (Molecular Pharmacology Branch, DTP, NCI, 2024).

Tested on: HSSY-II complex spheroid growth, percent test/control
Assay: Anticancer human tumor HSSY-II cell line growth inhibition [Asc];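 further: spheroids exposed to drug for 7 days before reading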
Details: for IC50: curve of first compound; for viability, T/C: stronger effect = lower value
In short: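 Spheroid model: tumor line + HUVEC + hMSC. Single agents and combinations; top conc. at/near clinical Cmax (10 microM if undetermined), half-log dilutions. DMSO stocks at 800-fold test concentration.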

[1] = second compound 0.1 µM, first compound 0.0316 µM
[2] = second compound 0.1 µM, first compound 0.1 µM
[3] = second compound 0.1 µM, first compound 0.316 µM
[4] = second compound 0.1 µM, first compound 1 µM
[5] = second compound 0.1 µM, first compound 3.16 µM
[6] = second compound 0.1 µM, first compound 10 µM
[7] = second compound 0.316 µM, first compound 0.0316 µM
[8] = second compound 0.316 µM, first compound 0.1 µM
[9] = second compound 0.316 µM, first compound 0.316 µM
[10] = second compound 0.316 µM, first compound 1 µM
[11] = second compound 0.316 µM, first compound 3.16 µM
[12] = second compound 0.316 µM, first compound 10 µM
[13] = second compound 1 µM, first compound 0.0316 µM
[14] = second compound 1 µM, first compound 0.1 µM
[15] = second compound 1 µM, first compound 0.316 µM
[16] = second compound 1 µM, first compound 1 µM
[17] = second compound 1 µM, first compound 3.16 µM
[18] = second compound 1 µM, first compound 10 µM

`C=C(F)C(=O)N1CCN(c2nc(OCC3CCCN3C)nc3c2CCN(c2cccc4cccc(Cl)c24)C3)CC1CC#N` (stereo not given) + CNC(C)C(=O)NC1CN(S(=O)(=O)c2cccc(S(=O)(=O)N3CCC4CCC(C(=O)NC(c5ccccc5)c5ccccc5)N4C(=O)C(NC(=O)C(C)NC)C3)c2)CCC2CCC(C(=O)NC(c3ccccc3)c3ccccc3)N2C1=O showed an IC50 (second compound 0.01 µM) of 618 nM, an IC50 (second compound 0.0316 µM) of 1030 nM and an IC50 (second compound 0.1 µM) of 876 nM. For the same compound, the IC50 (second compound 0.316 µM) was 895 nM, the IC50 (second compound 1 µM) was 650 nM and the viability, T/C (second compound 0.01 µM, first compound 0.0316 µM) was 95.8%. It also gave a viability, T/C (second compound 0.01 µM, first compound 0.1 µM) of 91%, a viability, T/C (second compound 0.01 µM, first compound 0.316 µM) of 61.4% and a viability, T/C (second compound 0.01 µM, first compound 1 µM) of 45.9%. For the same compound, the viability, T/C (second compound 0.01 µM, first compound 3.16 µM) was 0.97%, the viability, T/C (second compound 0.01 µM, first compound 10 µM) was 0.1% and the viability, T/C (second compound 0.0316 µM, first compound 0.0316 µM) was 89.3%. The viability, T/C (second compound 0.0316 µM, first compound 0.1 µM) was 80.9%, the viability, T/C (second compound 0.0316 µM, first compound 0.316 µM) was 68.7% and the viability, T/C (second compound 0.0316 µM, first compound 1 µM) was 53.9%. It also gave a viability, T/C (second compound 0.0316 µM, first compound 3.16 µM) of 0.93%, a viability, T/C (second compound 0.0316 µM, first compound 10 µM) of 0.1% and a viability, T/C [1] of 90%. For the same compound, the viability, T/C [2] was 91.2%, the viability, T/C [3] was 79.3% and the viability, T/C [4] was 47.6%. It also gave a viability, T/C [5] of 0.66%, a viability, T/C [6] of 0.1% and a viability, T/C [7] of 88.5%. The viability, T/C [8] was 74.5%, the viability, T/C [9] was 74.4% and the viability, T/C [10] was 47.8%. It also gave a viability, T/C [11] of 0.45%, a viability, T/C [12] of 0.12% and a viability, T/C [13] of 79.6%. It also gave a viability, T/C [14] of 80.6%, a viability, T/C [15] of 65.1% and a viability, T/C [16] of 41.6%. The viability, T/C [17] was 0.37% and the viability, T/C [18] was 0.19%.

In the case of `CCN1C(C(=O)NC23CCC(C(=O)O)(CC2)CC3)C(c2cccc(Cl)c2F)C2(C(=O)Nc3cc(Cl)ccc32)C12CCCCC2` (stereo not given) + CNC(C)C(=O)NC1CN(S(=O)(=O)c2cccc(S(=O)(=O)N3CCC4CCC(C(=O)NC(c5ccccc5)c5ccccc5)N4C(=O)C(NC(=O)C(C)NC)C3)c2)CCC2CCC(C(=O)NC(c3ccccc3)c3ccccc3)N2C1=O, the IC50 (second compound 0.01 µM) is reported as 88.2 nM, the IC50 (second compound 0.0316 µM) is reported as 99 nM and the IC50 (second compound 0.1 µM) is reported as 81.9 nM. It also gave an IC50 (second compound 0.316 µM) of 77.7 nM, an IC50 (second compound 1 µM) of 67.7 nM and a viability, T/C (second compound 0.01 µM, first compound 0.00949 µM) of 96%. For the same compound, the viability, T/C (second compound 0.01 µM, first compound 0.03 µM) was 82.6%, the viability, T/C (second compound 0.01 µM, first compound 0.0949 µM) was 47.9% and the viability, T/C (second compound 0.01 µM, first compound 0.3 µM) was 14.6%. For the same compound, the viability, T/C (second compound 0.01 µM, first compound 0.949 µM) was 2.75%, the viability, T/C (second compound 0.01 µM, first compound 3 µM) was 0.77% and the viability, T/C (second compound 0.0316 µM, first compound 0.00949 µM) was 84.7%. It also gave a viability, T/C (second compound 0.0316 µM, first compound 0.03 µM) of 65.1%, a viability, T/C (second compound 0.0316 µM, first compound 0.0949 µM) of 55.9% and a viability, T/C (second compound 0.0316 µM, first compound 0.3 µM) of 14.8%. For the same compound, the viability, T/C (second compound 0.0316 µM, first compound 0.949 µM) was 1.52%, the viability, T/C (second compound 0.0316 µM, first compound 3 µM) was 0.58% and the viability, T/C (second compound 0.1 µM, first compound 0.00949 µM) was 90%. For the same compound, the viability, T/C (second compound 0.1 µM, first compound 0.03 µM) was 81.2%, the viability, T/C (second compound 0.1 µM, first compound 0.0949 µM) was 44.6% and the viability, T/C (second compound 0.1 µM, first compound 0.3 µM) was 13.4%. The viability, T/C (second compound 0.1 µM, first compound 0.949 µM) was 1.69%, the viability, T/C (second compound 0.1 µM, first compound 3 µM) was 0.35% and the viability, T/C (second compound 0.316 µM, first compound 0.00949 µM) was 95.7%. The viability, T/C (second compound 0.316 µM, first compound 0.03 µM) was 85.1%, the viability, T/C (second compound 0.316 µM, first compound 0.0949 µM) was 41.8% and the viability, T/C (second compound 0.316 µM, first compound 0.3 µM) was 11.2%. It also gave a viability, T/C (second compound 0.316 µM, first compound 0.949 µM) of 1%, a viability, T/C (second compound 0.316 µM, first compound 3 µM) of 0.23% and a viability, T/C (second compound 1 µM, first compound 0.00949 µM) of 82.9%. The viability, T/C (second compound 1 µM, first compound 0.03 µM) was 74.4%, the viability, T/C (second compound 1 µM, first compound 0.0949 µM) was 39.8% and the viability, T/C (second compound 1 µM, first compound 0.3 µM) was 9.04%. The viability, T/C (second compound 1 µM, first compound 0.949 µM) was 1.32% and the viability, T/C (second compound 1 µM, first compound 3 µM) was 0.3%.

`O=C(c1cc(Cc2n[nH]c(=O)c3ccccc23)ccc1F)N1CCN(C(=O)C2CC2)CC1` + Cc1c(S(C)(=O)=O)c(-c2cc(F)cc(N3CCN(c4ccc(NS(=O)(=O)c5ccc(NC(CCN6CCC(C(=O)OCCCP(=O)(O)O)CC6)CSc6ccccc6)c(S(=O)(=O)C(F)(F)F)c5)cc4)CC3)c2)c(-c2ccc(Cl)cc2)n1C(C)C gave an IC50 (second compound 0.1 µM) of 2440 nM, an IC50 (second compound 0.316 µM) of 1960 nM and an IC50 (second compound 1 µM) of 1500 nM. For the same compound, the IC50 (second compound 3.16 µM) was 1810 nM, the IC50 (second compound 10 µM) was 1460 nM and the viability, T/C [1] was 103%. It also gave a viability, T/C [2] of 98.9%, a viability, T/C [3] of 93% and a viability, T/C [4] of 77.8%. The viability, T/C [5] was 41.7%, the viability, T/C [6] was 8.94% and the viability, T/C [7] was 82.7%. The viability, T/C [8] was 88.3%, the viability, T/C [9] was 86.8% and the viability, T/C [10] was 78.1%. The viability, T/C [11] was 29.8%, the viability, T/C [12] was 6.49% and the viability, T/C [13] was 81.8%. It also gave a viability, T/C [14] of 92.8%, a viability, T/C [15] of 76.2% and a viability, T/C [16] of 64.1%. For the same compound, the viability, T/C [17] was 26.4%, the viability, T/C [18] was 5.63% and the viability, T/C (second compound 3.16 µM, first compound 0.0316 µM) was 93.2%. The viability, T/C (second compound 3.16 µM, first compound 0.1 µM) was 92%, the viability, T/C (second compound 3.16 µM, first compound 0.316 µM) was 82.5% and the viability, T/C (second compound 3.16 µM, first compound 1 µM) was 76%. It also gave a viability, T/C (second compound 3.16 µM, first compound 3.16 µM) of 26.5%, a viability, T/C (second compound 3.16 µM, first compound 10 µM) of 3.28% and a viability, T/C (second compound 10 µM, first compound 0.0316 µM) of 83.5%. The viability, T/C (second compound 10 µM, first compound 0.1 µM) was 90.2%, the viability, T/C (second compound 10 µM, first compound 0.316 µM) was 78.8% and the viability, T/C (second compound 10 µM, first compound 1 µM) was 66.7%. The viability, T/C (second compound 10 µM, first compound 3.16 µM) was 16.9% and the viability, T/C (second compound 10 µM, first compound 10 µM) was 2.61%.
